# How the values were obtained:
# Experiment in all cases: Time-dependent kinase inhibition kinetics (progress curve)
# Format in all cases: biochemical
# PDGFRα = PDGFRα (Homo sapiens, UniProt P16234)
# Protocol: (§1) Typically, one measures the increase in inhibition of protein kinase activity in the presence of inhibitor over time. In one method, aliquots of a “pre-incubation” reaction mixture containing enzyme and inhibitor are assayed for activity (initial velocities) over time; increased inhibition or decreased initial velocities will be observed over time as the Michael adduct forms (Walsh, C, Enzyme Reaction Mechanisms, W.H. Freeman & Co., 1979, pp 86-94). In a second method, the time dependent loss of activity is measured as “progress curves” that measure and analyze product formed (e.g. ADP) versus time (Morrison & Walsh, Adv. Enzymol Relat Areas Mol. Biol. 1988, 61, 201-301). In either case, the time dependent inactivation can be dampened by the presence of a competing substrate, in this case ATP.
# (§2) For covalent inhibitors, plots of log (activity) versus time provide apparent first-order rate constants (kobsd) of enzyme activity loss. If these assays are performed at varying concentrations of inhibitor, a series of first-order plots is obtained and kobsd obtained at each inhibitor concentration. To measure time-dependent inhibition using the “progress-curve method” (see references cited above and Kuzmic et al., Methods Enzymol 2004; 383: 366-81), ERK (or other kinase) is treated with varying amounts of the lactone inhibitor, and the formation of ADP is measured continuously by a coupled assay. […] Such molecules may be competitive inhibitors but should not show time-dependent inactivation.
# (§3) Those of skill in the art will recognize that within the set of compounds useful in the methods of the invention, significant variability in specificity can be achieved, allowing one to identify optimal compounds for different applications. Inhibition progress curve analysis was performed using continuous, colorimetric, or fluorimetric assays. All experiments were done at 1 mM ATP, with the exception of KDR (at 5 mM ATP).
# (§4) MEK1 assays were performed using pre-incubation experiments with radioactive [^32P]ATP and filter binding of product. All other kinases were analyzed using progress curve analysis from a continuous spectrophotometric assay.
# TrkB = TrkB (Homo sapiens, UniProt Q16620)
# Protocol: as §1, §2, §3, §4
# Flt-1 (VEGFR1) = Flt-1 (VEGFR1) (Homo sapiens, UniProt P17948)
# Protocol: as §1, §2, §3, §4
# PDGFRβ = PDGFRβ (Homo sapiens, UniProt P09619)
# Protocol: as §1, §2, §3, §4
# GSK3β = GSK3β (Homo sapiens, UniProt P49841)
# Protocol: as §1, §2, §3, §4
# Flt-3 = molecular target: T1, Flt-3 (Homo sapiens, UniProt P36888)
# T1 sequence (P36888 27-993): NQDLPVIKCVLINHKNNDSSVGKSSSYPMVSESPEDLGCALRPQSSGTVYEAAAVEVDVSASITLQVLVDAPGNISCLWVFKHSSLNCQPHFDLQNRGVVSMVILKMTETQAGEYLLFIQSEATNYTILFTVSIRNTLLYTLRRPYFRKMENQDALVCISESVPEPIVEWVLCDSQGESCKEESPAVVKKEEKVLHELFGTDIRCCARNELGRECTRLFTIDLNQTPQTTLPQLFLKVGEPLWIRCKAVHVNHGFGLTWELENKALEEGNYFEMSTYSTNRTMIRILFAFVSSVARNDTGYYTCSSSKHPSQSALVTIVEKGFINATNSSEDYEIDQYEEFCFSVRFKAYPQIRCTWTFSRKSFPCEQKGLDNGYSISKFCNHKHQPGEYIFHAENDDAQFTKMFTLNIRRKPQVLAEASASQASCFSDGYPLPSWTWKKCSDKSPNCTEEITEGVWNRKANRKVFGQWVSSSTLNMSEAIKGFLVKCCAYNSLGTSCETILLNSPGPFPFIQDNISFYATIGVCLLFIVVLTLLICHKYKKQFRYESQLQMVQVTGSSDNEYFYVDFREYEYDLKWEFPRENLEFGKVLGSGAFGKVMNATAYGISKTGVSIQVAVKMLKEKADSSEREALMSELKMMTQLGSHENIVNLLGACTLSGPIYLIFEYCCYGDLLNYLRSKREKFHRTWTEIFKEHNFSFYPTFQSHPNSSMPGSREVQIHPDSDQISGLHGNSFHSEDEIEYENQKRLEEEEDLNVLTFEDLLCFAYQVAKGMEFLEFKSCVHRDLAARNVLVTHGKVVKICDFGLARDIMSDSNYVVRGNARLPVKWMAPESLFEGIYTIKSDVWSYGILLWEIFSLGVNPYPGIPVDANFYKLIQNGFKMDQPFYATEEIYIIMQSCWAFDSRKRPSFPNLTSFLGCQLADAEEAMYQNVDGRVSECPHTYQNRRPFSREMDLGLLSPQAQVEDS
# Protocol: as §1, §2, §3, §4
# KDR (VEGFR2) = KDR (VEGFR2) (Homo sapiens, UniProt P35968)
# Protocol: as §1, §2, §3, §4
# GSK3α = GSK3α (Homo sapiens, UniProt P49840)
# Protocol: as §1, §2, §3, §4
# TrkA = TrkA (Homo sapiens, UniProt P04629)
# Protocol: as §1, §2, §3, §4
# Chain of TrkB (Q16620 32-822): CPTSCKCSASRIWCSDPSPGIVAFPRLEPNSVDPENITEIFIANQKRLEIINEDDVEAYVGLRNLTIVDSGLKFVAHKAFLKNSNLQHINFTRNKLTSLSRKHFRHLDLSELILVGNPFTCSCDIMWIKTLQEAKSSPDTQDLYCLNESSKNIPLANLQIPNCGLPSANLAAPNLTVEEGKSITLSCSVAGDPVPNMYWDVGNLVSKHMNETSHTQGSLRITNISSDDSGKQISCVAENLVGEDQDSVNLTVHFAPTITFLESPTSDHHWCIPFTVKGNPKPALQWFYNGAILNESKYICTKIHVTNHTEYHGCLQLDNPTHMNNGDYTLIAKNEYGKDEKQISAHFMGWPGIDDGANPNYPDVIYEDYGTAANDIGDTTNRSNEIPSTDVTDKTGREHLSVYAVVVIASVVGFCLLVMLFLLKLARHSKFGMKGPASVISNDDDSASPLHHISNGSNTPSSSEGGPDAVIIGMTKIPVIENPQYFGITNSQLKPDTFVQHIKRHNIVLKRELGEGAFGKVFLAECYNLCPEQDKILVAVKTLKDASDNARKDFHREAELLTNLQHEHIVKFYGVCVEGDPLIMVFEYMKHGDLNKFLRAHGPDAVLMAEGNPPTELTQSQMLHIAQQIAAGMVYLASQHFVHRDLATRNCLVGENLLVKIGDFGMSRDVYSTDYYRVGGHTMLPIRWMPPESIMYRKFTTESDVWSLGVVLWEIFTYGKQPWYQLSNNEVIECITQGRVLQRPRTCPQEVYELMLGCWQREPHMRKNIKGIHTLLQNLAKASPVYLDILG
# Chain of PDGFRβ (P09619 33-1106): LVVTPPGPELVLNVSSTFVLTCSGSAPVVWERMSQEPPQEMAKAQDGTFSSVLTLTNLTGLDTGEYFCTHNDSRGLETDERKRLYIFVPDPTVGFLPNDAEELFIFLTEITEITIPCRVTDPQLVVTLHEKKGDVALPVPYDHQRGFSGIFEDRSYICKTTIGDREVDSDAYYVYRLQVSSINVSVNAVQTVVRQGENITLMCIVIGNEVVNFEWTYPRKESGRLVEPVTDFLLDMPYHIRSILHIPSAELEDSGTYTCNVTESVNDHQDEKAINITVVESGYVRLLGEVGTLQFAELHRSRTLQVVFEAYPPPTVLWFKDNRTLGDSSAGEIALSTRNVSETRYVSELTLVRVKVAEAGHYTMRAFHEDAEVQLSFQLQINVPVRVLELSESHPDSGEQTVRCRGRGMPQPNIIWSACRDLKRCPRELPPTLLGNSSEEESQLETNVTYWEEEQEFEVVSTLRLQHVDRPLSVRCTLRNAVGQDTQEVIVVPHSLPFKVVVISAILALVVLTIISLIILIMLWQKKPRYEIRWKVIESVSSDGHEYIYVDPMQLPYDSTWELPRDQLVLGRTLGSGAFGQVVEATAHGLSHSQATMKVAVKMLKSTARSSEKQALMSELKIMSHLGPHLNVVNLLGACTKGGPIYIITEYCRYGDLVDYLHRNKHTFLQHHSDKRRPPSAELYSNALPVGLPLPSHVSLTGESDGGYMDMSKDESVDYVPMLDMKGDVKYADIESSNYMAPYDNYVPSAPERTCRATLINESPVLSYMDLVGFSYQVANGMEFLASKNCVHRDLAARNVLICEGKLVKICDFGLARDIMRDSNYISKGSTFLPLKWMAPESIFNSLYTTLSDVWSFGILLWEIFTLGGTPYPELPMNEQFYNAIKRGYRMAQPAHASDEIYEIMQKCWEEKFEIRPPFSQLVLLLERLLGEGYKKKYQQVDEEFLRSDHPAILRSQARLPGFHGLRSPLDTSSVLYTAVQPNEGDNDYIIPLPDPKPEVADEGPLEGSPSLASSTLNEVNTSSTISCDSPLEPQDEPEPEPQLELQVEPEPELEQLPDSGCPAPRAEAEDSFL
# Chain of KDR (VEGFR2) (P35968 20-1356): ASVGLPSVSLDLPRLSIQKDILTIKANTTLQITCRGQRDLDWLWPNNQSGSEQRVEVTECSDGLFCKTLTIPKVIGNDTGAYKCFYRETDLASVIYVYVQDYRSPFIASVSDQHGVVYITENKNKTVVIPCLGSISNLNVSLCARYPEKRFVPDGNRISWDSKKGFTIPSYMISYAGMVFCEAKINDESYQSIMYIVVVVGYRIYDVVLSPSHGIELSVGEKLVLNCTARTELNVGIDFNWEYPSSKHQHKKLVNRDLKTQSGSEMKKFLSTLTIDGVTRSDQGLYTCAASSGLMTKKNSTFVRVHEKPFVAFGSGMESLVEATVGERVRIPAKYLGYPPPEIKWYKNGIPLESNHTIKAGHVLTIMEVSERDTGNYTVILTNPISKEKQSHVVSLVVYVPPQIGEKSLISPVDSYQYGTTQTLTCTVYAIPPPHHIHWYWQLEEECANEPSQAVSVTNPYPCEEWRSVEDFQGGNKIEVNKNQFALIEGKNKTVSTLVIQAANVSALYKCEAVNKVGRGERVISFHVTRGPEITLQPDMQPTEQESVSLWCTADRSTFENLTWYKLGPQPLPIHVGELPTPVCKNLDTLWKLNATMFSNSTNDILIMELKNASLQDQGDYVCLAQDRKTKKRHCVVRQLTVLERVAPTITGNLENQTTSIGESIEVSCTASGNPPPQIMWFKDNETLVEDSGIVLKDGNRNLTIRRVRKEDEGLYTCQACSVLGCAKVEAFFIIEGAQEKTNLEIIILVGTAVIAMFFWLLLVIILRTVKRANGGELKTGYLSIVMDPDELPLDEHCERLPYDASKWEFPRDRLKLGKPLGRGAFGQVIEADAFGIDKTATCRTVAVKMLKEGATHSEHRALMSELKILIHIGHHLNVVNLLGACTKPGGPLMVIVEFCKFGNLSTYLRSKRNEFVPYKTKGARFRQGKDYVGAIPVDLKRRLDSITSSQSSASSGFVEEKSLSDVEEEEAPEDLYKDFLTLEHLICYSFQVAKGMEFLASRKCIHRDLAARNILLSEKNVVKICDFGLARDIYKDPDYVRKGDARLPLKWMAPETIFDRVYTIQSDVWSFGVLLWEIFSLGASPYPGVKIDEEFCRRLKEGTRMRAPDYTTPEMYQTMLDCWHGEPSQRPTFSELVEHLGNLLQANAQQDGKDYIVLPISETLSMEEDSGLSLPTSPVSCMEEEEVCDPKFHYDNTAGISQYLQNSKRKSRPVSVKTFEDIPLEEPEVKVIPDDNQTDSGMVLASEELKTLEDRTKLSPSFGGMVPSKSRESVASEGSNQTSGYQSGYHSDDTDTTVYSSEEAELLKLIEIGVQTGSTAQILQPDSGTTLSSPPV
# Chain of TrkA (P04629 33-796): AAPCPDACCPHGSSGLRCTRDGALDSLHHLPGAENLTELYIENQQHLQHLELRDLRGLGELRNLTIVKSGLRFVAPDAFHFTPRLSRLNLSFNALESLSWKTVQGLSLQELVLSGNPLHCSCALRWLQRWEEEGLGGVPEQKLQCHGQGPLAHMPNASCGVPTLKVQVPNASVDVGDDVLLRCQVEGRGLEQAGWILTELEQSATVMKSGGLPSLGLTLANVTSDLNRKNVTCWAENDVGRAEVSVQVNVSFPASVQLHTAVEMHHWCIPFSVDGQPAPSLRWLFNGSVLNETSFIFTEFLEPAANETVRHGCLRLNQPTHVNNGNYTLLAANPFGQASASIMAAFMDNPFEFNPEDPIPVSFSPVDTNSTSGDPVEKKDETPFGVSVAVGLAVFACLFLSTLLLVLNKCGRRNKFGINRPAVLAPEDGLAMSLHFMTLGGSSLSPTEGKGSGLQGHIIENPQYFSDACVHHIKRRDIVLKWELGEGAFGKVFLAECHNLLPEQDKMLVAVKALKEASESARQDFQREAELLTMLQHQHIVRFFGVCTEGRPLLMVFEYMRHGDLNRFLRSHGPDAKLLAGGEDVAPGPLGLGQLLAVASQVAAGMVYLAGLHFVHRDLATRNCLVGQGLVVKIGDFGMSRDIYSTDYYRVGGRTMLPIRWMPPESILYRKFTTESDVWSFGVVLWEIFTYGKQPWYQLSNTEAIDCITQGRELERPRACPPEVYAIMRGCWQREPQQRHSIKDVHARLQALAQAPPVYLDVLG
# Chain of PDGFRα (P16234 24-1089): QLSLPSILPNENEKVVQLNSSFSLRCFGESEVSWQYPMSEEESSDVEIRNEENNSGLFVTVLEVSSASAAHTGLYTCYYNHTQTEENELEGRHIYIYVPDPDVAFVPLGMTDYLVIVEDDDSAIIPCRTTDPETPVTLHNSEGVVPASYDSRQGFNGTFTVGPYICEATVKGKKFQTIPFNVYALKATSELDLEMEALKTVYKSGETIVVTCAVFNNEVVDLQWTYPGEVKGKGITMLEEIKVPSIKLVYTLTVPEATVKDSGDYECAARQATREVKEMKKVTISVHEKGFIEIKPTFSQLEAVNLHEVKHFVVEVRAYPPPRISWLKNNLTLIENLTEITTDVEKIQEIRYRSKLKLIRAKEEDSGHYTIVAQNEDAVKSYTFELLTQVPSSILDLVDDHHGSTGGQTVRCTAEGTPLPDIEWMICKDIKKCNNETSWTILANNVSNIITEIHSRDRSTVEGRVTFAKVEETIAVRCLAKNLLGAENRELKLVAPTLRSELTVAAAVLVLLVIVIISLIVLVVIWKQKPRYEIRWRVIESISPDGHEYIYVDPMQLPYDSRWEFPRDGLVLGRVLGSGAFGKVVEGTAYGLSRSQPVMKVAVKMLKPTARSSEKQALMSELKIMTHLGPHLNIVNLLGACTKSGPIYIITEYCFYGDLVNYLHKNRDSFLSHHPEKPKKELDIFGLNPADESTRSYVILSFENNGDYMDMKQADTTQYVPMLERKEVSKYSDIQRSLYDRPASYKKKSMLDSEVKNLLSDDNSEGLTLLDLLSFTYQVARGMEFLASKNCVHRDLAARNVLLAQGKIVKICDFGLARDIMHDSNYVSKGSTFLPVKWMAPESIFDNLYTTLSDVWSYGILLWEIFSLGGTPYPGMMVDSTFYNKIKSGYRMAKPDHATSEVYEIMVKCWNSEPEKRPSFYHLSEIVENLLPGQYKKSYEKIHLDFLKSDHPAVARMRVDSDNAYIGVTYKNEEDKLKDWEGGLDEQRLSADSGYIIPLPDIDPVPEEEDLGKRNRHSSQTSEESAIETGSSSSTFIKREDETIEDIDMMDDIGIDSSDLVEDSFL
compound,measurement,setting,value
"COc1cc(O)c2c(c1)[C@H]1O[C@@H]1C[C@H](O)[C@H](O)C(=O)/C=C\C[C@H](C)OC2=O [Hypothemycin, hypothemycin]",kinact/KI,PDGFRα,1300 M⁻¹ s⁻¹
same,Ki,PDGFRα; 1 mM ATP,1500 nM
same,kinact,PDGFRα; 1 mM ATP,0.002 s⁻¹
same,Ki,"TrkB; TRKB, reversible inhibition competitive with ATP",370 nM
same,kinact/Ki,TrkB; TrkB,None
same,time-dependent inactivation (covalent bond formation),TrkB; TrkB,did not show time-dependent inactivation
same,kinact,"TrkB; TrkB, 1 mM ATP",None
same,kinact/KI,Flt-1 (VEGFR1),160000 M⁻¹ s⁻¹
same,kinact,Flt-1 (VEGFR1); 1 mM ATP,0.018 s⁻¹
same,Ki,"Flt-1 (VEGFR1); 1 mM ATP, significant decrease of enzyme activity over time without inhibitor",110 nM
same,kinact/KI,PDGFRβ,2500 M⁻¹ s⁻¹
same,Ki,PDGFRβ; 1 mM ATP,1200 nM
same,kinact,PDGFRβ; 1 mM ATP,0.003 s⁻¹
same,Ki,GSK3β,370000 nM
same,kinact/KI,GSK3β; GSK3β,5.4 M⁻¹ s⁻¹
same,kinact,"GSK3β; GSK3β, 1 mM ATP",0.002 s⁻¹
same,kinact/KI,Flt-3,47000 M⁻¹ s⁻¹
same,Ki,Flt-3; 1 mM ATP,150 nM
same,kinact,Flt-3; 1 mM ATP,0.007 s⁻¹
same,Ki,KDR (VEGFR2); KDR,10 nM
same,kinact/KI,KDR (VEGFR2); KDR,500000 M⁻¹ s⁻¹
same,kinact/Ki,KDR (VEGFR2); KDR (VEGFR2),500000 M⁻¹ s⁻¹
same,Ki,"KDR (VEGFR2); KDR (VEGFR2), 5 mM ATP",14 nM
same,kinact,"KDR (VEGFR2); KDR (VEGFR2), 5 mM ATP",0.007 s⁻¹
same,KDR activity inhibited,KDR (VEGFR2); calculated for 0.1 μM for ~10 minutes,> 98%
same,Ki,GSK3α,> 630000 nM
same,Ki,"TrkA; TRKA, reversible inhibition competitive with ATP",2200 nM
same,kinact/Ki,TrkA; TrkA,None
same,time-dependent inactivation (covalent bond formation),TrkA; TrkA,did not show time-dependent inactivation
same,kinact,"TrkA; TrkA, 1 mM ATP",None
